Details: in water

O=C([O-])c1cccc(S(=O)(=O)O)c1.[Na+]
Details | solubility (mole fraction)
278.15 K | 0.0276
283.15 K | 0.0296
288.15 K | 0.032
293.15 K | 0.0346
298.15 K | 0.0372
303.15 K | 0.0417
308.15 K | 0.0459
313.15 K | 0.0519
318.15 K | 0.0584
323.15 K | 0.0687
